Data as given in US20260132172A1, “IN VITRO BIOSYNTHESIS OF DIVERSE PYRIDINE-BASED MACROCYCLIC PEPTIDES” (The Brd. of Trustees of the Univ. of Illinois, priority 2022, published 2026).

Key:
[1] = test system: MroB/C; assay: MroB/C dehydration (Dha formation) of MroA precursor peptide variants, MALDI-TOF-MS / LC-MS/MS; format: biochemical, Micromonospora rosaria; conditions: for dehydration by MroBC (site and extent): MroBC assays followed by LC-MS/MS analysis, result in words; for Dha formation: MroA2 multi-site variants, in vitro translated, MALDI-TOF-MS
Description: In a 0.65 mL protein low-binding Eppendorf tube placed on ice. 0.75 μL of purified mroA variant template DNA was mixed with 0.75 μL of Solution B and 1 μL of Solution A of PURExpress In vitro Protein Synthesis Kit (E6800L) purchased from NEB (total volume of reaction is 2.5 μL). The translation reactions were performed at 37° C. for 1 h on an aluminum block.
For a full MroBCD substrate scope investigation, a total translation volume for each variant of 7.5 μL was performed. 1.5 μL of 90 mM iodoacetamide (IAA) was added to quench dithiothreitol (DTT) in the translation reaction mixture, a thiol-based nucleophile that can react with electrophilic dehydroalanines generated from MroBC-catalyzed dehydration assays. The translation product was split into two parts with these corresponding volumes: 3 μL and 6 μL. In the 6 μL part. 10.2 μL of the enzyme mix containing enzymes and cofactors was added along with 1.8 μL 90 mM ATP (pH 7.5), which was used to initiate the reaction. The enzyme mix was made by adding these components in the following order: HEPES pH 7.5, MgCl2, glutamate, T. bispora tRNA^Glu (CUC), thermostable inorganic pyrophosphatase (TIPP), TEV (L56V/S135G/S219V) (w/w ratio with a total amount of MBP-tagged protein=1:10), MBP-MroB, MBP-MroC, and T. bispora GluRS. The enzyme mix was incubated 25 min at room temperature before adding to the translation product to facilitate in situ TEV-catalyzed cleavage of MBP from MBP-MroB and MBP-MroC. The enzymatic reaction proceeded for 1 h at room temperature. Overall, the concentration of components in the 18 μL reaction mix is as follows: 50 mM HEPES pH 7.5, 5 mM MgCl2. L-glutamate 1 mM, 3 μM T. bispora tRNA^Glu, 1 μM T. bispora GluRS, 2 μM MBP-MroB, 2 μM MBP-MroC, […], 0.027 U/μL TIPP, and 5 mM IAA. In addition, the 3 μL part was incubated with the same buffer lacking enzymes and tRNA as a translation control.
The reactions were performed similarly as described above, with 10 μM substrate concentration and without IAA. The total volume of each reaction is 100 μL.
Enzymatic assays were desalted using solid-phase extraction prior to LC-ESI-MS/MS analysis. Specifically, except for the thiazol(in)es-containing pyritide (which utilize 8 mg Pierce C18 Spin Column), the samples were applied to Toptip C18 (10-200 μL, Glygen Corp) wetted with 50 μL of 80% acetonitrile (0.1% formic acid) and equilibrate with 150 μL of 0.1% formic acid following the manufacturer instructions. The C18 columns (tips) are then washed with 150 μL of 0.1% formic acid and eluted using 100 μL 80% acetonitrile (0.1% formic acid). The samples were then dried utilizing lyophilization and redissolved in 25% acetonitrile (80 μL for enzymatic assays of in vitro-translated substrates and 200 μL for enzymatic assays of purified substrates). Then 20 μL of each sample was injected into an Agilent AdvanceBio Peptide Plus column (2.1×150 mm, 2.7 μm) equipped with an Agilent 6545B Q-TOF interfaced with an Agilent 1290 Infinity II LC system. Mobile phase solvents were composed of H2O, 0.1% formic acid (Solvent A), and acetonitrile 0.1% formic acid (Solvent B). The column compartment was maintained at 35° C. during all experiments. The column was equilibrated with 5 column volumes of starting mobile phase (95% A and 5% B) between injections. The gradient of all LC runs was as follows: 0-2 min: 95% A 5% B, 2-3 min: 70% A 30% B, 3-18 min: 20% A 80% B, 18-20 min: 5% A 95% B. The samples were run to waste for the first 3 min before applying to the mass spectrometer. Mass range was set from 100 to 1700 m/z (except for 412MroA1 W7G: 100-3000 m/z). MS parameters were as follows: gas, 320° C. at 8 L/min: nebulizer, 35 psig: nozzle voltage, 1000 V: sheath gas, 350° C. at 11 L/min: capillary, 3500 V: fragmentor, 125 V: skimmer, 65 V: MS scan rate (10) spectra/s): MS-MS scan rate (5 spectra/s); and isolation width (MS/MS), 1.3 m z. […]

[2] = test system: MroD; assay: MroD [4+2] macrocyclization of didehydrated MroA2 variants, MALDI-TOF-MS; format: biochemical, Micromonospora rosaria; parameters: key: +++ indicates enzyme activity roughly equal to wild-type MroA2; ++ indicates modestly reduced enzyme activity; + indicates severely reduced enzyme activity; − indicates no detectable enzyme activity (no macrocycles observed); conditions: MroA2 multi-site variants; qualitatively estimated from leader peptide vs remaining didehydrated intermediate
Description: After incubation, the enzyme reaction (18 μL) was split into two equal parts. One part was treated with MBP-MroD such that the final concentration of MBP-MroD is 3 μM, and the other part was added the same volume but with buffer lacking MBP-MroD (50 mM HEPES, 300 mM NaCl, 2.5% glycerol, 0.5 mM TCEP). The reaction further proceeded for 1.5 h at room temperature. All reaction mixture was then desalted with solid-phase extraction using Ziptip with 0.6 μL C18 resin (EMD Millipore) and crystallized on an MTP384 steel target plate using either saturated sinapic acid or 50 mg/mL Super DHB [dissolved in 60% acetonitrile and 0.1% trifluoroacetic acid (TFA)] as the matrix. The crystallized spots were then analyzed using MALDI-TOF-MS (Bruker Ultraflex). The external standard for MALDI-TOF-MS analysis is ProteoMass Peptide and Protein MALDI-MS Calibration Kit (Sigma).

Substance	dehydration by MroBC (site and extent) [1]	Dha formation [1]	Relative MroD conversion [2]
MroA2-S1G/W8G: MroA2 variant (MRRRGSMDNVVTEAAEFADLDIVDLDLAVDEELAALSVGGLGNTEVGAGGFFGRSGLI)	inefficiently dehydrated at Ser7		
MroA2-S7G: MroA2 variant (MRRRGSMDNVVTEAAEFADLDIVDLDLAVDEELAALSVGGLGNTEVGASGFFGRGWLI)	went to completion		
MroA2-SIG: MroA2 variant (MRRRGSMDNVVTEAAEFADLDIVDLDLAVDEELAALSVGGLGNTEVGAGGFFGRSWLI)	went to completion		
S7G/110G: MroA2 variant (MRRRGSMDNVVTEAAEFADLDIVDLDLAVDEELAALSVGGLGNTEVGASGFFGRGWLG)	completely dehydrated at Ser1		
S7G/W8G: MroA2 variant (MRRRGSMDNVVTEAAEFADLDIVDLDLAVDEELAALSVGGLGNTEVGASGFFGRGGLI)	completely dehydrated at Ser1		
SGAGLNRSWLI [Number 17]		2 Dha	+++
SGAQQHSWLI [Number 13]		2 Dha	+++
SGAVRFNGSWLI [Number 36]		2 Dha	+
SGAWRSWLI [Number 6]		2 Dha	+++
SGDAMRWASWLI [Number 53]		2 Dha	
SGDDRDGGSWLI [Number 27]		Mix of 1, 2	+
SGDGWRSWLI [Number 18]		2 Dha	+++
SGEMHQHSWLI [Number 41]		Mix of 1, 2	+
SGERGMGKSWLI [Number 34]		2 Dha	+++
SGFDRAGHSWLI [Number 46]		2 Dha	+
SGFIRNASWLI [Number 31]		2 Dha	++
SGGRENSWLI [Number 11]		2 Dha	++
SGGWRVAHSWLI [Number 45]		2 Dha	+

Substance	dehydration by MroBC (site and extent) [1]	Dha formation [1]	Relative MroD conversion [2]
SGGYRPRSWLI [Number 38-H7R]		2 Dha	+++
SGHAAHSWLI [Number 7]		2 Dha	+++
SGHDNQARSWLI [Number 49]		2 Dha	+++
SGHQFKSWLI [Number 22]		2 Dha	+++
SGHWANSWLI [Number 15]		2 Dha	+++
SGIKNDASWLI [Number 23]		2 Dha	+++
SGIYHNSWLI [Number 20]		2 Dha	+++
SGKALERSWLI [Number 29-F7R]		Mix of 1,2	++
SGKAPGRSWLI [Number 16]		2 Dha	+++
SGKGKQASWLI [Number 19]		2 Dha	
SGKLGFSWLI [Number 10]		2 Dha	+
SGLGHSWLI [Number 1]		2 Dha	+
SGLKFYHSWLI [Number 44]		2 Dha	+++
SGMARYSWLI [Number 26]		2 Dha	+
SGMPRGSWLI [Number 8]		2 Dha	+++
SGNAWIKSWLI [Number 32]		2 Dha	+++
SGNERGSWLI [Number 9]		2 Dha	+++
SGNMHPGKSWLI [Number 40]		2 Dha	++
